Key:
rat [1] = conditions: Sub-acute repeat dose toxicity; sprague dawley; Oral; Gavage/Intubation; dose end: 28 day; group: systemic; systemic / clinical chemistry / alanine aminotransferase (alt/sgpt) / alanine aminotransferase (alt/sgpt) + systemic / clinical chemistry / …
dog = conditions: Sub-acute repeat dose toxicity; beagle; Oral; Gavage/Intubation; dose end: 28 day; group: systemic; systemic / clinical chemistry / alanine aminotransferase (alt/sgpt) / alanine aminotransferase (alt/sgpt) + systemic / clinical chemistry / …
rat [2] = conditions: Other (NonGuideline or Guideline Not Listed); sprague dawley; Injection; Intravenous; dose end: 3 day; group: cannot be grouped; systemic / clinical chemistry / chloride / chloride + systemic / clinical chemistry / creatinine / creatinine + systemic / clinical …
rat [3] = conditions: Sub-acute repeat dose toxicity; sprague dawley; Injection; Intravenous; dose end: 13 day; group: systemic; systemic / clinical chemistry / alanine aminotransferase (alt/sgpt) / alanine aminotransferase (alt/sgpt) + systemic / clinical chemistry / …
rat [4] = conditions: Other (NonGuideline or Guideline Not Listed); wistar; Injection; Intravenous; dose end: 3 day; group: cannot be grouped; systemic / clinical chemistry / cholesterol / cholesterol + systemic / clinical chemistry / creatinine / creatinine + systemic / clinical …
mouse [5] = conditions: Other (NonGuideline or Guideline Not Listed); cd1; Injection; Intravenous; dose end: 7 day; group: cannot be grouped; systemic / clinical chemistry / alanine aminotransferase (alt/sgpt) / alanine aminotransferase (alt/sgpt) + systemic / clinical chemistry / …
rat [6] = conditions: Carcinogenicity, fischer, Oral, Feed, dose end: 78 week, group: systemic
mouse [7] = conditions: Carcinogenicity, b6c3f1, Oral, Feed, dose end: 78 week, group: systemic
rat [8] = conditions: Prenatal developmental toxicity study; sprague dawley; Dermal; Topical; dose end: 15 GD; group: maternal; systemic / in life observation / body weight / body weight gain + systemic / in life observation / clinical signs / [other]
rat [9] = conditions: Prenatal developmental toxicity study, long evans, Oral, Gavage/Intubation, dose end: 15 GD
rabbit = conditions: Prenatal developmental toxicity study; new zealand white; Dermal; Topical; dose end: 18 GD; group: maternal; systemic / in life observation / clinical signs / [other]
[10] = systemic / in life observation / body weight / body weight
[11] = systemic / pathology microscopic / liver / carcinoma + systemic / pathology microscopic / zymbal's gland / squamous cell carcinoma + …
[12] = systemic / in life observation / body weight / body weight + systemic / pathology microscopic / liver / carcinoma + systemic / in life …
[13] = group: developmental, developmental / developmental malformation / bone / irregular ossification + developmental / developmental malformation / general / runts + …
[14] = group: developmental, developmental / developmental malformation / bone / irregular ossification + developmental / developmental malformation / kidney / …
[15] = group: maternal, systemic / in life observation / clinical signs / [other] + systemic / in life observation / clinical signs / hyperactivity + reproductive…

Compound `CNS(=O)(=O)c1cc(C(=O)N2CCC(CCN3C4CCC3CC(n3c(C)nc5ccccc53)C4)(c3cccc(F)c3)CC2)c(Cl)cc1F` (stereo not drawn) has an LEL (rat [1]) of 500 mg/kg/day, an LOAEL (rat [1]) greater than 2000 mg/kg/day and an NEL (rat [1]) of less than 500 mg/kg/day. For the same compound, the NOAEL (rat [1]) was no less than 2000 mg/kg/day, the LEL (dog) was 250 mg/kg/day and the LOAEL (dog) was greater than 750 mg/kg/day. For the same compound, the NEL (dog) was less than 250 mg/kg/day and the NOAEL (dog) was no less than 750 mg/kg/day.
`C[C@@H](O)[C@H]1C(=O)N2C(C(=O)[O-])=C(CN3c4cccc5c(CC[N+]67CC[N+](CC(N)=O)(CC6)CC7)ccc(c45)S3(=O)=O)[C@H](C)[C@H]12.[Cl-]` was tested, and the LEL (rat [2]) was 150 mg/kg/day, the LOAEL (rat [2]) was greater than 150 mg/kg/day and the NEL (rat [2]) was less than 150 mg/kg/day. The NOAEL (rat [2]) was no less than 150 mg/kg/day, the LEL (rat [3]) was 150 mg/kg/day and the LOAEL (rat [3]) was greater than 225 mg/kg/day. It also gave an NEL (rat [3]) of 75 mg/kg/day, an NOAEL (rat [3]) of no less than 225 mg/kg/day and an LEL (rat [4]) of 150 mg/kg/day. The LOAEL (rat [4]) was greater than 225 mg/kg/day, the NEL (rat [4]) was 75 mg/kg/day and the NOAEL (rat [4]) was no less than 225 mg/kg/day. The LEL (mouse [5]) was 400 mg/kg/day, the LOAEL (mouse [5]) was greater than 800 mg/kg/day and the NEL (mouse [5]) was 200 mg/kg/day. The NOAEL (mouse [5]) was no less than 800 mg/kg/day.
`c1ccc(NNc2ccccc2)cc1` [1,2-Diphenylhydrazine] was tested, and the LEL (rat [6]; [10]) was 2 mg/kg/day, the NEL (rat [6]; [10]) was less than 2 mg/kg/day and the LOAEL (rat [6]; [11]) was greater than 4 mg/kg/day. The NOAEL (rat [6]; [11]) was no less than 4 mg/kg/day, the LOAEL (mouse [7]; [10]) was 60 mg/kg/day and the LEL (mouse [7]; [12]) was 60 mg/kg/day. The NEL (mouse [7]; [12]) was 6 mg/kg/day and the NOAEL (mouse [7]; [12]) was 6 mg/kg/day.
Compound `NCCO` [Ethanolamine] has an LEL (rat [8]) of 225 mg/kg/day, an LOAEL (rat [8]) greater than 225 mg/kg/day and an NEL (rat [8]) of 75 mg/kg/day. It also gave an NOAEL (rat [8]) of no less than 225 mg/kg/day, an LOAEL (rat [9]; [13]) greater than 500 mg/kg/day and an NOAEL (rat [9]; [13]) of no less than 500 mg/kg/day. The LEL (rat [9]; [14]) was 50 mg/kg/day, the NEL (rat [9]; [14]) was less than 50 mg/kg/day and the NEL (rat [9]; group: maternal, systemic / in life observation / clinical signs / [other] + systemic / in life observation / clinical signs / hyperactivity) was 300 mg/kg/day. For the same compound, the LEL (rat [9]; [15]) was 500 mg/kg/day, the LOAEL (rat [9]; [15]) was greater than 500 mg/kg/day and the NOAEL (rat [9]; [15]) was no less than 500 mg/kg/day. For the same compound, the LEL (rabbit) was 75 mg/kg/day, the LOAEL (rabbit) was greater than 75 mg/kg/day and the NEL (rabbit) was 25 mg/kg/day. The NOAEL (rabbit) was no less than 75 mg/kg/day.
